One compound from BindingDB's records for doi:10.1021/np4008798 (The Chinese University of Hong Kong, 2014) can be followed below.

This experiment is described as follows: Inhibition of tyrosinase in mouse Melan-a cells assessed as decrease in L-DOPA Vmax at 60 uM by Lineweaver-Burk plot.

Each structure is given as a SMILES string.

Broadly, the Ki is the equilibrium dissociation constant of an inhibitor or competing ligand from its target. With `OC[C@H]1O[C@@H](Oc2c(O)cc(O)cc2/C=C/c2ccc(O)cc2)[C@H](O)[C@@H](O)[C@@H]1O`, the Ki came to 3.1 mM.
